SMILES strings stand for the structures. pIC50: −log10 of the molar value.

Experimental findings from patent US6121323A, “Bishydroxyureas” (3M Innovative Properties Company, priority 1997, dated 2000) are described below.

Assay [1] has as its system Leukotriene B4 production in whole human blood. As to the kind of experiment: In vitro human whole blood Leukotriene B4 inhibition. Format: cell-based. The following applies: A23187 stimulated, read-out: IC50 (concentration producing 50% inhibition of LTB4 production). As to the method: IN VITRO HUMAN WHOLE BLOOD LEUKOTRIENE B4 INHIBITION
The test method described below measures the ability of compounds to inhibit the production of Leukotriene B4 in whole human blood.
Whole human blood is collected by venipuncture into a 60 cc syringe containing 100 units of heparin.
compounds are disolved in dimethyl sulfoxide. Compounds are tested at concentrations of 100, 33, 11, 3.7, 1.2 and 0.41 μM. Each concentration is tested in duplicate.
Aliquots (1 μL) of compound solution are added to 1 mL polyethylene tubes followed by the addition of 500 μL portion of heparinized blood. The tubes are mixed thoroughly then allowed to preincubate at ambient temperature for 15 minutes. A 25 μL portion of 1 mM Calcium Ionophore A23187 in dimethyl sulfoxide/Tris buffer is added to the tubes. The tubes are mixed thoroughly then incubated at 37° C. for 30 minutes.
The tubes are centrifuged at 2000 rpm for 10 minutes. 100 μL portions of plasma are transferred to 1 mL polyethylene tubes containing 400 μL portions of methanol. The tubes are vortexed then frozen at -20° C. overnight.
The tubes are centrifuged for 10 minutes then 100 μL portions of methanol supernatant are transferred to a 96 well microtiter plate. 10 μL portions are transferred from this plate to a 96 well assay plate. Methanol dilutions of LTB4 standard curve are added to the assay plate. 10 μL portions of blank methanol/plasma supernatant are added to each standard curve well. The assay plate is vacuum dried at ambient temperature. The radioimmunoassay buffer is added, the plate is bath-sonicated for 5 minutes then assayed according to the manufacturer's instructions (Advanced Magnetics; Cambridge, Mass.). Inhibition of LTB4 production is calculated as the ratio of the amount of LTB4 formed in the presence (LTB4 +cpd) and absence (LTB4 no cpd) of compound according the equation below. [formula] IC50 values (concentration of compound producing a 50% inhibition of LTB4 production) are calculated by linear regression analysis of percentage inhibition versus log compound concentration plots.

In assay [2] the target is T1, 5-lipoxygenase (Homo sapiens, UniProt P09917).
T1 construct: endogenous in cells; host or cells: leukocytes from whole human blood (EDTA, dextran sedimentation, hypotonic lysis)
T1 sequence (P09917 1-674): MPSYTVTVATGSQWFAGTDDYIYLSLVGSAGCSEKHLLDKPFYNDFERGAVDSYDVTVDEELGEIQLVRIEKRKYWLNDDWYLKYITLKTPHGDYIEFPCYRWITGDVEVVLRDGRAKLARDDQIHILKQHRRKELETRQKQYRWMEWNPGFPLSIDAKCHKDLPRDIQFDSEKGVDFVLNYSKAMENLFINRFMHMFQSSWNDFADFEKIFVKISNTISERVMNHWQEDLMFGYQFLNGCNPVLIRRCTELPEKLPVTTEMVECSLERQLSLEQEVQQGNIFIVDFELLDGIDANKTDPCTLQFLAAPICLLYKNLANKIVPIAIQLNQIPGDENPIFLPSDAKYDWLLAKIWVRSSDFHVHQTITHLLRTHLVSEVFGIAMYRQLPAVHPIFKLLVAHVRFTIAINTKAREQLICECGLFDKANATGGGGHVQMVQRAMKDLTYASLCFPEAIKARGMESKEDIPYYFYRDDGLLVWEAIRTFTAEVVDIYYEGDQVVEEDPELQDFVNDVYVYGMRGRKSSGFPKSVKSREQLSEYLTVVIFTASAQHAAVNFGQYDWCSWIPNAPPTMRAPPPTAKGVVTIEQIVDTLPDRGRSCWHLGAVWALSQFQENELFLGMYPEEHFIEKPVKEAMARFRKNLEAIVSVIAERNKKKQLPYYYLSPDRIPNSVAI
Briefly: 5-Lipoxygenase inhibition in human leukocytes (LTC4 by radioimmunoassay). The following applies: A23187 stimulated, LTC4 readout, read-out: IC50 (concentration producing 50% leukotriene biosynthesis inhibition). Format: cell-based. As to the method:
5-LIPOXYGENASE INHIBITION IN HUMAN LEUKOCYTES
The test method described below measures the ability of compounds of the invention to inhibit 5-lipoxygenase activity in human leukocytes.
Whole human blood is collected by venipuncture into EDTA (1.4 mL of 0.25M per 60 mL of whole blood). The red blood cells are sedimented with a 6% dextran/0.9% sodium chloride solution at a ratio of 25 mL whole blood to 15 mL dextran solution. The blood/dextran combination is mixed by inversion and the red blood cells are allowed to settle out for 45 minutes at ambient temperature. The plasma/dextran supernatant is removed then centrifuged at ambient temperature at 3000 rpm for 10 minutes. The plasma/dextran supernatant is removed and the cells are resuspended in 10 mL of the plasma/dextran solution. The cell suspension is combined with 20 mL of water, mixed for 1.5 minutes then immediately combined with 10 mL of 3.6% sodium chloride, mixed and centrifuged at ambient temperature at 3000 rpm for 10 minutes. The pellet is washed with 40 mL of Tris buffer (5.55 mM dextrose, 15.36 mM Tris base, 136.9 mM sodium chloride with pH 7.3-7.4) then centrifuged at 3000 rpm for 10 minutes. The pellet is then resuspended into Tris buffer containing 1 mM calcium chloride to provide approximately 1.0×10^7 cells/mL.
Compounds are dissolved in dimethyl sulfoxide. Compounds are tested at concentrations of 100, 33, 11, 3.7, 1.2 and 0.41 μM. Each concentration is tested in duplicate.
A 15 μL portion of Tris buffer containing 1 mM calcium chloride is added to each well of a 96 well microtiter plate. A 1 μL portion of drug solution or vehicle (dimethyl sulfoxide) is added to each well followed by the addition of a 75 μL portion of the cell suspension. The plates are gently mixed then allowed to stand at ambient temperature for 10 minutes. A 10 μL portion of 30 μM A23187 Calcium Ionophore (prepared by dissolving the ionophore in DMSO and then diluting 1:80 into the Tris buffer) is added to each well except the wells that contain the blanks. The blank wells measure the level of LTC4 production in the absence of A23187. The plates are gently mixed then incubated at 37° C. for 10 minutes.
Following incubation the plates are centrifuged at 2000 rpm for 1.5 minutes and the supernatant is removed as quickly as possible to stop the reaction. The supernatants are frozen at -20° C. until they are assayed.
The supernatants are assayed for the presence of Leukotriene C4 by radioimmunoassay which is performed according to the manufacturer's instructions (Advanced Magnetics; Cambridge, Mass.). Inhibition of leukotriene biosynthesis is calculated as the ratio of the amount of LTC4 formed in the presence (LTC4 +cpd) and absence (LTC4 no cpd) of compound according to the following equation. [formula] IC50 values (concentrations of compound producing 50% leukotriene biosynthesis inhibition) are calculated by linear regression analysis of percentage inhibition versus log compound concentration plots.

Consider `CN(O)C(=O)Nc1ccc(C(c2ccc(NC(=O)N(C)O)cc2)(C(F)(F)F)C(F)(F)F)cc1` [Example 5, 4,4'-(2,2-Hexafluoropropane)bis(1-hydroxy-1-methyl-3-phenylurea)], for which the pIC50 is 6.15 in assay [1] and 7.62 in assay [2].
For the compound `O=C(NCCCCCCNC(=O)N(O)Cc1ccccc1)N(O)Cc1ccccc1` [Example 10, 1,1'-Hexamethylenebis(3-hydroxy-3-benzylurea)], the pIC50 was 5.70 in assay [1] and 7.00 in assay [2].
The like results for `CN(O)C(=O)Nc1cccc2c(NC(=O)N(C)O)cccc12` [Example 8, 1,1'-(1,5-Naphthalene)bis(3-hydroxy-3-methylurea)] were, in that order, 6.15 and 5.25.
For the compound `CN(O)C(=O)N[C@H]1CC[C@H](NC(=O)N(C)O)CC1` [Example 9, trans-1,4-Cyclohexanebis(3-hydroxy-3-methylurea)], the pIC50 in assay [1] is 4.76; in assay [2], under 5.00.
In the case of `CN(O)C(=O)Nc1ccc(Oc2ccc(NC(=O)N(C)O)cc2)cc1` [Example 6, 4,4'-Oxybis(1-hydroxy-1-methyl-3-phenylurea)], the pIC50 in assay [1] is 6.30; in assay [2], 6.67.
On the same counts, the results for `COc1cc(-c2ccc(NC(=O)N(C)O)c(OC)c2)ccc1NC(=O)N(C)O` [Example 11] are 6.46 and 7.00.
Consider `CN(O)C(=O)Nc1cccc(NC(=O)N(C)O)c1` [Example 7, 1,1'-(m-Phenylene)bis(3-hydroxy-3-methylurea)], for which the pIC50 in assay [1] is 6.26; in assay [2], 5.23.
On the same counts, the results for `CCc1cc(Cc2cc(CC)c(NC(=O)N(C)O)c(CC)c2)cc(CC)c1NC(=O)N(C)O` [Example 4, 4,4'-Methylenebis(1-hydroxy-1-methyl-3-(2,6-diethylphenyl)urea)] are 5.09 and 5.37.
